Results reported in patent publication US20180000778A1, “SMALL MOLECULE ANTAGONISTS OF DUSP5 AND METHODS OF USE” (THE MEDICAL COLLEGE OF WISCONSIN, INC., priority 2015, published 2018).
“And” between values parts separate entries of the source, which are not always exact repeats. Equal entries are not always repeated. Structures can show the parent of a compound that is named as a salt.

What was measured:
phosphatase [1] = conditions: cited from earlier work
full-length DUSP5 = molecular target: T1, full-length DUSP5 (Homo sapiens, UniProt Q16690); experiment: ERK dephosphorylation assay, full-length DUSP5 with pERK2 substrate, western blot; assay type: biochemical
T1 construct: an assay was development using ERK2 and full-length DUSP5
T1 sequence (Q16690 1-384): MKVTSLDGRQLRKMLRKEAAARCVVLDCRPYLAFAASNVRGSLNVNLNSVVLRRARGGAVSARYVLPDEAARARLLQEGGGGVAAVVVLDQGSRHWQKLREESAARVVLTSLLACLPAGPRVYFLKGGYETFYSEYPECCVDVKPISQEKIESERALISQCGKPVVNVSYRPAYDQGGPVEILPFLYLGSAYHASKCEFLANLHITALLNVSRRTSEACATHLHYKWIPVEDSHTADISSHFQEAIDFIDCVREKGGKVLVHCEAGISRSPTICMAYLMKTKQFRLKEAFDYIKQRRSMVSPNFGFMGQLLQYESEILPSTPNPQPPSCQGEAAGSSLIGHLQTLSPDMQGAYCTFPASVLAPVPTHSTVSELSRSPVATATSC
Description: ERK Dephosphorylation Assay.
For this assay, 10 ng of GST-tagged recombinant phosphorylated ERK2 (R&D Systems, 1230-KS) was incubated with and without the indicated DUSP5 proteins (0.5 nM final concentration) for 15 min at room temperature, with or without the indicated drugs. The reactions were halted with 2× Laemmli sample buffer and subjected to SDS-PAGE. The proteins were transferred to polyvinylidene difluoride (PVDF) and immunoblotted using antibodies to pERK (Cell Signaling Tech., #9106) and Total ERK (Cell Signaling Tech., #9102). Bound antibodies were visualized using horseradish peroxidase-linked anti-mouse IgG (Cell Signaling Tech, #7076S) and anti-rabbit IgG (Cell Signaling Tech, #7074S), respectively, and ECL reagents (Pierce, 34708) according to the manufacturer's protocol. IC50s were calculated using GraphPad Prism 6 software.
And, the native substrate for DUSP5 is the pERK2 protein, which is much larger and capable of a more complicated range of inter-molecular interactions that the pNPP substrate (which is intended only to mimic the phospho-tyrosine of pERK). […] To this end, an assay was development using ERK2 and full-length DUSP5, monitoring pERK levels in a western blot, as a function of pERK2 substrate concentration. […] This surprising increase in potency for CSD3-2320 (but not NTS) with full length DUSP5 underscores the importance of performing secondary assays with biologically relevant forms of enzyme and substrate.

DUSP5 PD(WT) [2] = molecular target: T2, DUSP5 PD(WT) (Homo sapiens, UniProt Q16690); experiment: pNPP phosphatase activity assay with DUSP5 PD(WT); assay type: biochemical
T2 construct: hexa-histidine (N); made in house; host or cells: E. coli BL21(DE3)
T2 sequence (Q16690 178-319 limits assumed): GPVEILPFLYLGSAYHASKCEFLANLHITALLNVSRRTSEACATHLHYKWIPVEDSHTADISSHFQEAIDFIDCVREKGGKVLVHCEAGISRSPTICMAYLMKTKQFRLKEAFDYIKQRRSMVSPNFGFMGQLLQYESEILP
Description: p-Nitrophenolphosphatase (pNPP) Activity Assay.
To measure enzymatic activity of the DUSP5 PD and the inhibitory capacity of selected molecules, an in vitro phosphatase assay was developed based on previous studies (27). In this assay, DUSP5 PD dephosphorylates the substrate p-nitrophenol phosphate (pNPP, Sigma Aldrich), yielding p-nitrophenolate, which absorbs at 405 nm with an extinction coefficient of 18,000 M-1 cm-1.
Thus, an increase in absorbance at 405 nm corresponds to the turnover of pNPP top-nitrophenolate. The assay was initially optimized in 1 mL quartz cuvettes, then was subsequently optimized for and validated in a 96-well plate format. All IC50 values were obtained using the 96-well plate assay format (see below). The assay buffer contained 100 mM Tris, 100 mM sodium chloride, 5 mM magnesium chloride, and 1 mM dithiothreitol (DTT) at pH 7.5. The pNPP substrate was prepared as a 50 mM stock by dissolving the solid substrate in assay buffer. The DUSP5 PD and pNPP were assayed initially in a cuvette (1 mL total volume) and initial velocities were fitted to the Michaelis-Menten equation (1)
where v is the initial velocity, Vmax is the maximum velocity, Km is the Michaelis constant, and [S] is the concentration of pNPP. Data were fitted using a nonlinear least squares fit to eq. 1, with GraphPad Prism 6 software.
For the 96-well plate validation assay, sodium orthovanadate (Sigma Aldrich) was utilized as a positive control for inhibition (Swarup et al., Biochem Biophys Res Commun. 1982; 107:1104-9.) at a final concentration of 10 μM, to completely block activity. All plate assays were performed in standard 96-well clear bottom plates (Thermo Scientific Nunc) with a total assay volume of 200 μL, using a SpectraMax M5 Microplate Reader (Molecular Devices). The plate validation assay was performed with replicate columns of positive control wells, negative control wells and blank wells. Blank columns contained only buffer and pNPP. Negative control (uninhibited) contained buffer, pNPP, and DUSP5 PD; and, positive control contained the same components, but also contained 10 μM sodium orthovanadate. The plate was then shaken and allowed to equilibrate in the spectrophotometer at 25° C. for 30 min. After incubation, 4 μL of a […] was dispensed into appropriate wells utilizing a single-channel pipette. This produced a final enzyme concentration of 1 μM. Before a read was taken, the plate was shaken for five seconds. The initial rate for the DUSP5 PD reaction was linear for approximately 90 min; and, the plate was kept in the spectrophotometer at 25° C. for an additional 80 min after the kinetic read. The endpoint reading was subsequently taken at 90 min after initiation of reaction. Slopes from the kinetic read, as well as single-point absorbance values at the 90-minute endpoint read, were then averaged. For blank wells and positive control wells, both slope values (continuous assay) and single point absorbance values (fixed time assay) were approximately zero, as expected. Standard deviations were calculated and a Z′ value (Zhang et al., J Biomol Screening. 1999; 4:67-73) subsequently determined using the following equation: […]
IC50 values were obtained using the assay described above, in 96 well plates. The maximum inhibitor concentration screened in any plate was […] and the minimum was 1.5 μM. The IC50 plate was designed so that the first column of wells served as blanks, with wells containing only buffer and substrate. The second column of wells functioned as the plate negative control, with each well containing buffer, substrate and enzyme. The remaining wells in the plate contained buffer, substrate, enzyme, and varying amounts of inhibitor, with inhibitor concentration increasing from left to right across the plate. Data points were collected in triplicate, and inhibitor concentrations were chosen to provide data equally spread on a logarithmic scale. […]

DUSP5 (PD)-WT = molecular target: T3, DUSP5 (PD)-WT (Homo sapiens, UniProt Q16690); experiment: Phosphatase inhibition profiles (Table 4), initial rates; assay type: biochemical; conditions: read-out: IC50 DUSP5 (PD)-WT (mean ± SE)
T3 construct: hexa-histidine (N); made in house; host or cells: E. coli BL21(DE3)
T3 sequence (Q16690 178-319): T2 sequence (Q16690 178-319 limits assumed)

PTPN1 = molecular target: T4, PTPN1 (Homo sapiens, UniProt P18031); experiment: as above; assay type: biochemical; conditions: read-out: IC50 PTPN1 (mean ± SE)
T4 sequence (P18031 1-435): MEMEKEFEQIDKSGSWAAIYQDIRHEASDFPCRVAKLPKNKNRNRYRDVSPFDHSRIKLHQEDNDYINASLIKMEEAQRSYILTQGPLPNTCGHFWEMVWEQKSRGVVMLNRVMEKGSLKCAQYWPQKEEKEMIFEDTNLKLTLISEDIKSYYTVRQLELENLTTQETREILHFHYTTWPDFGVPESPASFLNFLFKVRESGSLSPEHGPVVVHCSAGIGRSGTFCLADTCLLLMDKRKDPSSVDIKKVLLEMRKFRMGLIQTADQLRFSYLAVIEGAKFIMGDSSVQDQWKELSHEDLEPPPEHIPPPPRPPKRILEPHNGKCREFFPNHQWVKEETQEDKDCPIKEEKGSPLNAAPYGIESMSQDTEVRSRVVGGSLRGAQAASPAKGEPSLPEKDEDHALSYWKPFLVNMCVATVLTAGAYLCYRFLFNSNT

[3] = Aggregation of compounds (nephelometry; detergent treatment); assay type: physicochemical
Description: Nephelometry is a technique for measuring the relative aggregation of particles in solution, based on the light-scattering properties of molecular aggregates (30). To explore the ability of the chemicals studied herein to form aggregates, which can lead to artifactual inhibition effects, nephelometry was performed. Compounds were tested for aggregation in 96-well plates using a buffer containing 100 mM Tris base, 100 mM sodium chloride, and 5 mM magnesium chloride at pH 7.5. Each compound analyzed in these experiments contained concentrations of compound ranging from 10-100 μM, recorded in quadruplet. Each plate was analyzed at two separate gain values of 52 and 72. Data were collected using a BMG NEPHELOstar Plus, equipped with a 635 nm laser.
To investigate whether Suramin aggregates in solution, a property often investigated with small molecules, we performed detergent treatment assays. […] NTS and Suramin were compared using DUSP5 PD IC50 assays performed with and without detergent. […] We concluded that Suramin forms aggregates in vitro which can lead to non-specific protein inhibition effects. Beyond any adverse implications for repurposing Suramin in this project, the aggregation phenomenon raises more global concerns regarding the current clinical use of Suramin, and may in part explain some of the known toxicity associated with Suramin (32).

SHP-1 = SHP-1 (Homo sapiens, UniProt P29350); experiment: NCI compound library screen, phosphatase inhibitory activity; assay type: biochemical
Chain of SHP-1 (P29350 whole entry): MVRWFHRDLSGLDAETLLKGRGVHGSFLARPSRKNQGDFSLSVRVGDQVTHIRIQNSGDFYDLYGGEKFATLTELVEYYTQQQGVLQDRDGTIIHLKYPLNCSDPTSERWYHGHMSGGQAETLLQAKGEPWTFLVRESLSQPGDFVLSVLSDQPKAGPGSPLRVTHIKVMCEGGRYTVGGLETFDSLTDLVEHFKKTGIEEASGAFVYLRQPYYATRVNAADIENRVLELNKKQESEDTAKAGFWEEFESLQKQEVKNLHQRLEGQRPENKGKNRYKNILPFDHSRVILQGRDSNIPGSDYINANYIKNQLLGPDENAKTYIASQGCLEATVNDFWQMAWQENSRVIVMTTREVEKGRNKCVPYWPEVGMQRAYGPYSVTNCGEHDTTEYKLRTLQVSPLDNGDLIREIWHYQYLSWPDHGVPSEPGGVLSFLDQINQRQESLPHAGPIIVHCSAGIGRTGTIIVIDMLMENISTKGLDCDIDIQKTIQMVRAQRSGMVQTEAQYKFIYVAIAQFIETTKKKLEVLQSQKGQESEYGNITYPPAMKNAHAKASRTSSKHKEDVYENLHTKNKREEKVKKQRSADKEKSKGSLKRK

PTP1B = PTP1B (Homo sapiens, UniProt P18031); experiment: as above; assay type: biochemical
phosphatase [4] = experiment: Phosphatase inhibitory activity (Example 3, range of activity); assay type: biochemical
[5] = test system: pERK levels in HUVEC cells; experiment: pERK levels in HUVEC cells, western blot; assay type: cell-based, Human; conditions: HUVECs incubated 2 hours, pERK relative to total ERK; Na3VO4 at 200 μM
Description: Cell Culture and Western Blots.
Human Umbilical Vein Endothelial Cells (HUVECs) were maintained in EBM2 media (Lonza, CC-3156) supplemented with a combined serum and growth factor kit (Lonza, CC-4176). Cells were incubated with the indicated concentrations of drug for 2 h and lysed with RIPA buffer (Sigma, R0278) on ice. Cell lysates were cleared by centrifugation at 16,300×g for 30 min. The resulting supernatants were isolated and protein concentration determined by Lowry assay (DC protein assay, BioRad). 2× laemmli sample buffer was added to equal amounts of protein and separated by SDS-PAGE. The protein gels were transferred to polyvinylidene difluoride (PVDF) and immunoblotted using antibodies to phosphorylated ERK (Cell Signaling, #9106) and total ERK (Cell Signaling, #9102). Bound antibodies were visualized using horseradish peroxidase-linked anti-rabbit IgG, anti-mouse IgG (Cell Signaling Tech., #7074 and #7076) and ECL reagents (Thermo Scientific, 34080) according to the manufacturer's protocol.

DUSP5 PD(WT) [6] = molecular target: T2, DUSP5 PD(WT); experiment: pNPP phosphatase activity assay with DUSP5 PD(WT); assay type: biochemical; conditions: 1 mL cuvettes, pNPP substrate

For `O=S(=O)(O)c1ccc2cc(N=Nc3cc(S(=O)(=O)O)c4cccnc4c3O)ccc2c1` [NSC-87877], the “range of phosphatase inhibition, published compound” value (phosphatase [1]) is given as roughly 1.7 mM.

Compound `O=S(=O)(O)c1ccc2c(S(=O)(=O)O)cc(S(=O)(=O)O)cc2c1` [NTS, naphthalene 1,3,6-trisulfonate] has an IC50 (full-length DUSP5; full-length DUSP5, pERK/ERK2 substrate) of 221 ± 87 µM.

With `O=S(=O)(O)c1cc(S(=O)(=O)O)c2[nH]c3c(S(=O)(=O)O)cc(S(=O)(=O)O)cc3c2c1` [RR506, Carbazole-1,3,6,8-tetrasulfonic acid, Tetrasodium Salt] the “IC50's, range in words” value (DUSP5 PD(WT) [2]; enzyme inhibition (FIG. 3)) was “mM range”.

With `O=S(=O)(O)c1cc(Oc2cc(S(=O)(=O)O)cc(S(=O)(=O)O)c2O)c(O)c(S(=O)(=O)O)c1` [RR533] the IC50 (DUSP5 (PD)-WT) was 26.4 ± 7.2 µM and the IC50 (PTPN1) was 106 ± 0.1 µM.

For `Nc1cccc2c(O)cc(S(=O)(=O)O)cc12` [RR535], the aggregation [3] was “do not aggregate”, the IC50 (PTPN1) was greater than 1000 µM and the phosphatase inhibitory activity (SHP-1) was “phosphatase inhibitory activity”. For the same compound, the phosphatase inhibitory activity (PTP1B) was “phosphatase inhibitory activity” and the “range in which active” value (phosphatase [4]; monomer) was roughly 1e-06 mM.

With `O=S(=O)(O)c1cc(O)c2cccc(N=Nc3cccc4c(O)cc(S(=O)(=O)O)cc34)c2c1` [RR601] the aggregation [3] was “do not aggregate”, the IC50 (DUSP5 (PD)-WT) was 30 ± 3 µM and the IC50 (PTPN1) was 2.5 ± 0.1 µM. For the same compound, the “range in which active” value (phosphatase [4]; dimer) was roughly 30 mM.

For `O=S(=O)([O-])c1cc2c(O)c(c1)Cc1cc(S(=O)(=O)[O-])cc(c1O)Cc1cc(S(=O)(=O)[O-])cc(c1O)Cc1cc(S(=O)(=O)[O-])cc(c1O)C2.[Na+].[Na+].[Na+].[Na+]` [RR701], the “activity in DUSP5:pERK assay, in words” value (full-length DUSP5; in vitro, western blot) was “robust activity”.

For `Cc1ccc(C(=O)Nc2ccc(S(=O)(=O)O)c3cc(S(=O)(=O)O)cc(S(=O)(=O)O)c23)cc1NC(=O)c1cccc(NC(=O)Nc2cccc(C(=O)Nc3cc(C(=O)Nc4ccc(S(=O)(=O)O)c5cc(S(=O)(=O)O)cc(S(=O)(=O)O)c45)ccc3C)c2)c1` [Suramin], the inhibition at 1 µM (DUSP5 PD(WT) [2]; 1 μM Suramin, 5 mM pNPP, increasing Triton X-100, read-out: plateau level inhibition with increasing detergent) was 30%, the “effect of detergent on inhibition” value (DUSP5 PD(WT) [2]; IC50 measurement in presence and absence of 0.5% Triton) was “loss of some inhibitory capability in the presence of detergent” and the mechanism of inhibition (DUSP5 PD(WT) [2]; inhibition profile versus pNPP) was “competitive inhibition”. For the same compound, the Ki (DUSP5 PD(WT) [2]; read-out: Ki, competitive inhibition, varied pNPP and inhibitor) was 24.6 µM and 25 µM, the “effect on pERK levels” value [5] was “significant decrease in pERK levels” and the aggregation [3] was “Aggregates”.

With `[Na+].[Na+].[Na+].[O]=[V]([O-])([O-])[O-]` [sodium orthovanadate] the “effect on pERK levels” value [5] was “expected increase in pERK levels” and the IC50 (DUSP5 PD(WT) [6]) was 0.008 ± 0.008 µM.
